This is an account of results in US7148193B2, “Compounds that bind to growth hormone receptor” (Antyra, Inc., priority 1997, dated 2006).

Each structure is given as a SMILES string. Where a SMILES comes first, the peptide text is derived from it. Bridges are numbered along the chain shown (N, C = ends).

The target of the assay is T1, rat growth hormone receptor (Rattus norvegicus, UniProt P16310).
T1 construct: expressed in transfected cells; host or cells: FDC-1 cells
T1 sequence (P16310 19-638): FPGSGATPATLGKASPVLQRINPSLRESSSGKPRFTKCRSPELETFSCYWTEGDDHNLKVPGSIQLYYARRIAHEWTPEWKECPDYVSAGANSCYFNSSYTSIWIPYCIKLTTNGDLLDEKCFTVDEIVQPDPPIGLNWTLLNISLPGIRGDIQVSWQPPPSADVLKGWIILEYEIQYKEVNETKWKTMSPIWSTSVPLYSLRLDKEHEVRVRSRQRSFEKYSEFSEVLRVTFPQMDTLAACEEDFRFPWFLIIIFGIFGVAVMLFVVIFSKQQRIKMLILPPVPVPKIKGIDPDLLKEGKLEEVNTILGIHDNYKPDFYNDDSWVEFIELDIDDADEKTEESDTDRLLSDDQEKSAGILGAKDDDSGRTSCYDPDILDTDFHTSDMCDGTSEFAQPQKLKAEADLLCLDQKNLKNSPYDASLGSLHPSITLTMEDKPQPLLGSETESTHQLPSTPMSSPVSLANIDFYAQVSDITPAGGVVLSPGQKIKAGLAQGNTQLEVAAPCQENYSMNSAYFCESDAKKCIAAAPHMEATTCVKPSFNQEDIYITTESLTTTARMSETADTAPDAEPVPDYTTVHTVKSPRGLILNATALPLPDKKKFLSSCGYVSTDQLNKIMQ
Kind of assay: Cell proliferation assay (WST-1) in FDC-1 cells stably transfected with rat growth hormone receptor. The settings on record: 18 h. Format: cell-based. As for the experimental part: Cells transfected with rat GHR (50,000 cells per well) were incubated with either bovine GH, H5 peptide (SEQ ID NO:8), 447 peptide (SEQ ID NO:11) or control peptide (SEQ ID NO:10) for 18 h at 37° C. Experiments were done in triplicate. Background signal A450=0.15. […] Cells transfected with rat GHR (50,000 cells per well) containing […] bovine GH were incubated with either control peptide (SEQ ID NO:10), H5 peptide (SEQ ID NO:8) or 447 peptide (SEQ ID NO:11) for 18 h at 37° C. Proliferation was measured using WST-1 reagent. The “*” symbol corresponds to the A450 measurement for the cells incubated without GH.
Agonistic and antagonistic activities of the two peptides, H5WT (SEQ ID NO:8) and bP#447 ([…]), were tested in FDC-1 cells stably transfected with the gene encoding the rat growth hormone receptor. The resulting cell line required either IL-3 or GH for growth. The cells were grown in RPMI 1640 medium containing 10% FCS (fetal calf serum) and 20 units of IL-3 per ml. […] activity assays were performed in a total volume of 100 μl in 96 well plates (flat bottom). Cells were seeded at 50,000 cells/well in 50 μl RPMI 1640 (without IL-3) medium containing horse serum instead of FCS to reduce background. To duplicate wells, 50 μl of either growth hormone or peptides at different concentrations was added, followed by incubation for 18 h in a CO2 incubator. Assays to measure the antagonistic activity were performed in a total volume of 100 μl in 96 well plates. Either H5WT peptide (SEQ ID NO:8), bP#447 peptide (SEQ ID NO:11), or control peptide (SEQ ID NO:10) was added to cells containing 0.003 μM of bovine GH and incubated at 37° C. for 18 h in a CO2 incubator. Proliferation assays were performed using WST-1 reagent. The WST-1 tetrazolium salt (light red color) is cleaved to formazan (dark red color) by the succinate-tetrazolium reductase system, which is active only in viable cells. […] Ten microliters of WST-1 reagent was added and the plates incubated for 1–4 h 37° C. Proliferation was measured by absorbance at 450 nm.
(In general: Tetrazolium dyes change colour on reduction, which living cells bring about.)

With `CC(C)C[C@@H]1NC(=O)[C@H](CO)NC(=O)[C@H](CCC(N)=O)NC(=O)[C@@H](NC(=O)[C@H](CC(C)C)NC(=O)[C@H](CC(=O)O)NC(=O)[C@H](CCCCN)NC(=O)[C@H](Cc2ccc(O)cc2)NC(=O)[C@@H](N)CC(=O)O)CSSC[C@@H](C(=O)N[C@@H](C)C(=O)N[C@@H](CCCCN)C(=O)N[C@@H](CCCCN)C(=O)O)NC(=O)[C@H](Cc2c[nH]c3ccccc23)NC(=O)CNC(=O)[C@H](C)NC(=O)[C@H](CC(C)C)NC(=O)[C@H](Cc2c[nH]c3ccccc23)NC(=O)CNC(=O)[C@@H]2CCCN2C(=O)[C@H](Cc2ccc(O)cc2)NC(=O)[C@H]([C@@H](C)O)NC(=O)[C@H](C(C)C)NC(=O)CNC1=O` [H5] (H-DYKDLCQSLGVTYPGWLAGWCAKK-OH; disulfide 6-21; N-terminus and C-terminus assumed), the antagonistic activity result (cells with 0.003 μM bovine GH, at the concentrations tested) was “no antagonistic activity”. In addition, for the setting “no GH added, WST-1 A450”, the agonistic activity entry is “partial agonistic activity”.
